# From ChEMBL document CHEMBL1151945 (J Med Chem, 2009)
# Assays:
# [1] = molecular target: T1, Dihydrofolate reductase (Escherichia coli) (UniProt P0ABQ4); test: Inhibition of Escherichia coli dihydrofolate reductase at 31 uM
# T1 sequence (whole entry): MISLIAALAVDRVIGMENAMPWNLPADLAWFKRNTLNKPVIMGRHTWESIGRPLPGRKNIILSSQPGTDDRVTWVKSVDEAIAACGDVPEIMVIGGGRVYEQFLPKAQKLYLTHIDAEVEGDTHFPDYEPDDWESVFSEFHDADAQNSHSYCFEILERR
# Thymidylate synthase [2] = molecular target: Thymidylate synthase (Homo sapiens, UniProt P04818)
# Thymidylate synthase [3] = molecular target: Thymidylate synthase (Escherichia coli, UniProt C3SWJ7)
# [4] = molecular target: T2, Bifunctional dihydrofolate reductase-thymidylate synthase (Toxoplasma gondii, UniProt Q07422)
# T2 sequence (Q07422 whole entry): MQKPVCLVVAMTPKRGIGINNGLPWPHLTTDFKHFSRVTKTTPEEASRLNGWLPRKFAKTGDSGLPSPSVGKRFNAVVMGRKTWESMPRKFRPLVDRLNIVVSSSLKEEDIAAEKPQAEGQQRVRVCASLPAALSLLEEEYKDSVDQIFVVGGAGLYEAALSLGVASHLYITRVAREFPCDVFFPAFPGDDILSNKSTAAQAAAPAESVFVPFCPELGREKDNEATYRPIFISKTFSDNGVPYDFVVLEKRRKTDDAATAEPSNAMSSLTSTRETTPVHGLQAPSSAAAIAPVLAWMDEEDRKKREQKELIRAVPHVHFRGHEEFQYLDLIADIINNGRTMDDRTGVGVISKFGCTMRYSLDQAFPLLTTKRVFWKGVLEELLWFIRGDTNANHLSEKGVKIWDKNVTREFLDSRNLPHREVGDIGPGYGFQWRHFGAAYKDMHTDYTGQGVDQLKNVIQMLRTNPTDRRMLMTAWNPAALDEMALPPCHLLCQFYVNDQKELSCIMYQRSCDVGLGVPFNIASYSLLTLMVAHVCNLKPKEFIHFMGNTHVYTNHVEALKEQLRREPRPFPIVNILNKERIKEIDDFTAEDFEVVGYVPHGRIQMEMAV
# Dihydrofolate reductase = molecular target: T3, Dihydrofolate reductase (Homo sapiens, UniProt P00374)
# T3 sequence (P00374 whole entry): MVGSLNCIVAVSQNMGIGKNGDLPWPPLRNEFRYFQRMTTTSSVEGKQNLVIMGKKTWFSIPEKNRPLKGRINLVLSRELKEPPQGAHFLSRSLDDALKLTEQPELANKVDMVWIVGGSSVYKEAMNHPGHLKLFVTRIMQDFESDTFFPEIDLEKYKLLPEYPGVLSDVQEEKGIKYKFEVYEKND
# [5] = molecular target: T2, Bifunctional dihydrofolate reductase-thymidylate synthase; remark: listed apart in the source
# [6] = molecular target: T1, Dihydrofolate reductase (Escherichia coli); test: Inhibition of Escherichia coli dihydrofolate reductase at […]
# CCRF-CEM = test: cells; settings: Homo sapiens
# MOLT-4 = test: cells; settings: Homo sapiens
# NCI-H460 = test: cells; settings: Homo sapiens
# cells [7] = settings: Homo sapiens, NCI-H525
# NCI-H23 = test: cells; settings: Homo sapiens
# HCC 2998 = test: cells; settings: Homo sapiens
# HCT-116 = test: cells; settings: Homo sapiens
# LOX IMVI = test: cells; settings: Homo sapiens
# M14 = test: cells; settings: Homo sapiens
# OVCAR-8 = test: cells; settings: Homo sapiens
# cells [8] = settings: Homo sapiens, 786-0
# SN12C = test: cells; settings: Homo sapiens
# HL-60(TB) = test: cells; settings: Homo sapiens
# [9] = molecular target: T1, Dihydrofolate reductase (Escherichia coli); test: Inhibition of Escherichia coli dihydrofolate reductase at 3 uM
# [10] = molecular target: Thymidylate synthase (Escherichia coli) (UniProt C3SWJ7); test: Inhibition of Escherichia coli thymidylate synthase at 23 uM
# [11] = molecular target: T1, Dihydrofolate reductase (Escherichia coli); test: Inhibition of Escherichia coli dihydrofolate reductase at 28 uM
# [12] = molecular target: T4, Bifunctional dihydrofolate reductase-thymidylate synthase (Toxoplasma gondii) (UniProt Q07422); settings: 23 uM
# T4 sequence (whole entry): T2 sequence (Q07422 whole entry)
# [13] = molecular target: T1, Dihydrofolate reductase (Escherichia coli); test: Inhibition of Escherichia coli dihydrofolate reductase at 27 uM
# Sequence of Thymidylate synthase (Escherichia coli, UniProt C3SWJ7) (C3SWJ7 whole entry): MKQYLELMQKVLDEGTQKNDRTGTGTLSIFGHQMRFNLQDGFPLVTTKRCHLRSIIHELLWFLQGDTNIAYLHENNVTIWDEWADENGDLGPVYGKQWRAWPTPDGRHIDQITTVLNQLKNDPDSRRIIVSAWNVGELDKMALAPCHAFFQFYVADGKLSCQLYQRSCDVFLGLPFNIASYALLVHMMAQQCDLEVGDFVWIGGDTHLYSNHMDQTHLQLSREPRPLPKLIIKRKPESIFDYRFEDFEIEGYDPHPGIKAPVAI
# Sequence of Thymidylate synthase (Homo sapiens, UniProt P04818) (P04818 whole entry): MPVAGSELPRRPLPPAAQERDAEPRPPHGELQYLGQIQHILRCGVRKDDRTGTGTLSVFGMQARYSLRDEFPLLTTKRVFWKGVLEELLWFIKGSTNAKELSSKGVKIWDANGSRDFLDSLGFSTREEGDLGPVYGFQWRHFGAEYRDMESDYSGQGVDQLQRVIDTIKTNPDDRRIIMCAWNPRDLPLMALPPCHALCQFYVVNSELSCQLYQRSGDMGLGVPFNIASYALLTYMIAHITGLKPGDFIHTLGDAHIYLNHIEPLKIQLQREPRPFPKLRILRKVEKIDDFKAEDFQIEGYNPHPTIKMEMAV
# Sequence of Thymidylate synthase (Escherichia coli) (C3SWJ7 1-264): as the sequence (C3SWJ7 whole entry) above
Compound,IC50 (Thymidylate synthase [2]),IC50 (Thymidylate synthase [3]),IC50 [4],IC50 (Dihydrofolate reductase),IC50 [5],other results
CCc1sc2nc(N)[nH]c(=O)c2c1Sc1ccc(F)cc1,1.3 µM,2.9 µM,2.6 µM,0.62 µM,0.025 µM,inhibition [1]: 15%
CCc1sc2nc(N)[nH]c(=O)c2c1Sc1ccc(Cl)c(Cl)c1,0.23 µM,2.3 µM,1 µM,0.29 µM,0.0081 µM,
CCc1sc2nc(N)[nH]c(=O)c2c1Sc1cc(Cl)cc(Cl)c1,0.69 µM,1.2 µM,1.6 µM,0.28 µM,0.014 µM,inhibition [6]: 0%
CCc1sc2nc(N)[nH]c(=O)c2c1Sc1ccc(Br)cc1,0.39 µM,2.2 µM,2.2 µM,0.26 µM,0.013 µM,
CCc1sc2nc(N)[nH]c(=O)c2c1Sc1ccc([N+](=O)[O-])cc1,0.22 µM,1.7 µM,1 µM,0.26 µM,0.0087 µM,
Cc1sc2nc(N)[nH]c(=O)c2c1Sc1ccc(C(=O)N[C@@H](CCC(=O)O)C(=O)O)cc1,,,,,,GI50 (CCRF-CEM): 94.5 µM; GI50 (MOLT-4): > 100 µM; GI50 (NCI-H460): 41.2 µM; GI50 (cells [7]): > 100 µM; GI50 (NCI-H23): > 100 µM; GI50 (HCC 2998): > 100 µM; GI50 (HCT-116): > 100 µM; GI50 (LOX IMVI): 65.6 µM; GI50 (M14): > 100 µM; GI50 (OVCAR-8): > 100 µM; GI50 (cells [8]): > 100 µM; GI50 (SN12C): > 100 µM
CCc1sc2nc(N)[nH]c(=O)c2c1Sc1ccncc1,,2 µM,1.7 µM,0.35 µM,0.017 µM,
CCc1sc2nc(N)[nH]c(=O)c2c1Sc1ccc2ccccc2c1,2.3 µM,1.4 µM,1.1 µM,2.2 µM,0.0084 µM,
CCc1sc2nc(N)[nH]c(=O)c2c1Sc1ccc(Cl)cc1,0.75 µM,2.5 µM,,0.3 µM,,
CCc1sc2nc(N)[nH]c(=O)c2c1Sc1ccccc1Cl,1.1 µM,2 µM,2.5 µM,0.6 µM,0.027 µM,
CCc1sc2nc(N)[nH]c(=O)c2c1Sc1ccc(C(=O)N[C@@H](CCC(=O)O)C(=O)O)cc1,0.054 µM,0.018 µM,0.09 µM,0.019 µM,0.0021 µM,GI50 (CCRF-CEM): 0.853 µM; GI50 (HL-60(TB)): 0.497 µM; GI50 (MOLT-4): 4.78 µM; GI50 (NCI-H460): 0.959 µM; GI50 (cells [7]): 7.8 µM; GI50 (NCI-H23): 9.4 µM; GI50 (HCC 2998): 0.965 µM; GI50 (HCT-116): 0.284 µM; GI50 (LOX IMVI): 0.0909 µM; GI50 (M14): 4.32 µM; GI50 (OVCAR-8): 0.579 µM; GI50 (cells [8]): 0.817 µM; GI50 (SN12C): 3.31 µM
CCc1sc2nc(N)[nH]c(=O)c2c1Sc1cccc(Cl)c1,0.38 µM,2.3 µM,1.8 µM,0.3 µM,0.012 µM,inhibition [9]: 0%
CCc1sc2nc(N)[nH]c(=O)c2c1Sc1cc(OC)ccc1OC,4.6 µM,> 23 µM,,0.84 µM,0.014 µM,inhibition [10]: 11%; inhibition [11]: 0%; inhibition [12]: 29%
CCc1sc2nc(N)[nH]c(=O)c2c1Sc1cc(OC)cc(OC)c1,1.2 µM,1.8 µM,2.3 µM,0.54 µM,0.024 µM,inhibition [13]: 0%
CCc1sc2nc(N)[nH]c(=O)c2c1Sc1ccccc1,5.6 µM,28 µM,8.4 µM,2.6 µM,0.033 µM,
